For assay [1], the target named is T1, C-1-tetrahydrofolate synthase, cytoplasmic (Homo sapiens) (UniProt P11586).
T1 sequence (whole entry): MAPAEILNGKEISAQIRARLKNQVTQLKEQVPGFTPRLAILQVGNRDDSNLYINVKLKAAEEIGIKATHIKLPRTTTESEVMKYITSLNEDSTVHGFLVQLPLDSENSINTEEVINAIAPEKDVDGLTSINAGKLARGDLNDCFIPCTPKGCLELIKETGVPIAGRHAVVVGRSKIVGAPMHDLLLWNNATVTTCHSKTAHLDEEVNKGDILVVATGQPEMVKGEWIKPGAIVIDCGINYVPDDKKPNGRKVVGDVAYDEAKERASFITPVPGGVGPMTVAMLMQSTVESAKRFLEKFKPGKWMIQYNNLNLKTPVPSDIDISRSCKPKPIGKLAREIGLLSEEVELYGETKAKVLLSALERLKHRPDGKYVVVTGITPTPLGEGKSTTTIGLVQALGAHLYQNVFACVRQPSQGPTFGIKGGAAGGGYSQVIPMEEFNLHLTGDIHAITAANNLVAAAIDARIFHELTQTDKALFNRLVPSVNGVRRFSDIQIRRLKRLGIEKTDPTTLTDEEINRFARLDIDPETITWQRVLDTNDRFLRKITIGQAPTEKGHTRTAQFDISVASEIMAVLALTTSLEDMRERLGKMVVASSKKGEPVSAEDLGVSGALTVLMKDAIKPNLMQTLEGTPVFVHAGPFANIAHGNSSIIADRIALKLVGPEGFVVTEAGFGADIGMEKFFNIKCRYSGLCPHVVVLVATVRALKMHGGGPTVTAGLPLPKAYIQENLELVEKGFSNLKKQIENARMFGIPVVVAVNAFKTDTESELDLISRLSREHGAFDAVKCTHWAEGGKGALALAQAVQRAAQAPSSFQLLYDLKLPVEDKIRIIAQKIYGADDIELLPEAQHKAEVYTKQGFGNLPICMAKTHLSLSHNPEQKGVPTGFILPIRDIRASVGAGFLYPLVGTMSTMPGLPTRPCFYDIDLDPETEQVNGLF
As to the kind of experiment: Percent inhibition was measured against 5,10-Methylene Tetrahydrofolate Cyclohydrolase (L1210 tumor tissue) enzyme at 10E-4 M inhibitory concentration.

The target in assay [2] is T1, C-1-tetrahydrofolate synthase, cytoplasmic (Homo sapiens). As to the kind of experiment: (§1) Percent inhibition was measured against 5,10-Methylene Tetrahydrofolate Cyclohydrolase (porcine liver) enzyme at 10E-4 M inhibitory concentration. The note with it: Sus scrofa; target entry is the homologue from another species.
The species entered for assay [3] is Sus scrofa. As to the kind of experiment: Percent inhibition was measured against 5,10-Methylene Tetrahydrofolate Reductase (porcine kidney) enzyme at 10E-4 M inhibitory concentration.
Assay [4] has as its target T1, C-1-tetrahydrofolate synthase, cytoplasmic (Homo sapiens). The assay is described as §1. To be noted: Sus scrofa; target entry is the homologue from another species. This is another data set of the same source.
For assay [5], the species on record is Sus scrofa. As to the kind of experiment: Percent inhibition was measured against formyl tetrahydrofolate synthase (porcine liver) enzyme at 10E-4 M inhibitory concentration.
Assay [6] is filed under the species Sus scrofa. Description: Percent inhibition was measured against methionine synthetase (porcine kidney)enzyme at 10E-4 M inhibitory concentration.
For assay [7], the species on record is Sus scrofa. As to the kind of experiment: Percent inhibition was measured against Serine transhydroxymethylase (porcine liver) enzyme. at 10E-4 M inhibitory concentration.
The next assay has as its system Thymidylate synthase. As to the kind of experiment: Percent inhibition was measured against Thymidylate synthase (calf thymus) enzyme at 10E-4 M inhibitory concentration.
Assay [8] concerns Columba livia. As to the kind of experiment: Percent inhibition was measured against 5-amino-4-imidazolecarboxamide ribotide transformylase(pigeon liver) enzyme at 10E-4 M inhibitory concentration.
Assay [9] relates to Columba livia. Description: Percent inhibition was measured against glycinamide ribotide transformylase (pigeon liver) enzyme at 10E-4 M inhibitory concentration.
In assay [10] the target is Dihydrofolate reductase (Bos taurus) (UniProt P00376). Description: Percent inhibition was measured against Dihydrofolate reductase (bovine liver) enzyme at 10E-4 M inhibitory concentration.
Assay [11] concerns formyltetrahydrofolate synthetase (Mus musculus). As to the kind of experiment: Percent inhibition was measured against formyl tetrahydrofolate synthase (L1210 tumor tissue) enzyme at 10E-4 M inhibitory concentration.
Assay [12] in a line: Percent inhibition was measured against 5,10-Methylene Tetrahydrofolate Cyclohydrolase (L1210 tumor tissue) enzyme at 10E-6 M inhibitory concentration.
Assay [13] has as its target T1, C-1-tetrahydrofolate synthase, cytoplasmic (Homo sapiens). As to the kind of experiment: Percent inhibition was measured against 5,10-Methylene Tetrahydrofolate Cyclohydrolase (A,porcine liver) enzyme. To be noted: Sus scrofa; target entry is the homologue from another species; concentration not given here.
The target is the same in assay [14]. As to the kind of experiment: Percent inhibition was measured against 5,10-Methylene Tetrahydrofolate Cyclohydrolase (porcine liver) enzyme. The note with it: Sus scrofa; target entry is the homologue from another species; concentration not given here.
For assay [15], the species on record is Sus scrofa. As to the kind of experiment: Percent inhibition was measured against 5,10-Methylene Tetrahydrofolate Reductase (porcine kidney) enzyme. To be noted: concentration not given here.
For assay [16], the system named is Columba livia. As to the kind of experiment: Percent inhibition was measured against glycinamide ribotide transformylase (pigeon liver) enzyme. The note with it: concentration not given here.
Assay [17] is filed under the species Sus scrofa. Description: Percent inhibition was measured against formyl tetrahydrofolate synthase (porcine liver) enzyme. The note with it: concentration not given here.
For assay [18], the system named is Columba livia. As to the kind of experiment: Percent inhibition was measured against 5-amino-4-imidazolecarboxamide ribotide transformylase(pigeon liver) enzyme. To be noted: concentration not given here.
For assay [19], the target named is Thymidylate synthase (Homo sapiens) (UniProt P04818). As to the kind of experiment: Percent inhibition was measured against Thymidylate synthase (calf thymus) enzyme. To be noted: concentration not given here.
The species named for assay [20] is Sus scrofa. Description: Percent inhibition was measured against methionine synthetase (porcine kidney)enzyme. To be noted: concentration not given here.
For assay [21], the target named is T1, C-1-tetrahydrofolate synthase, cytoplasmic (Homo sapiens). As to the kind of experiment: Percent inhibition was measured against 5,10-Methylene Tetrahydrofolate Cyclohydrolase (L1210 tumor tissue) enzyme at 10E-5 M inhibitory concentration.
Assay [22] has the same target. Description: Percent inhibition was measured against 5,10-Methylene Tetrahydrofolate Cyclohydrolase (L1210 tumor tissue) enzyme at 10E-6 M inhibitory concentration. The note with it: Sus scrofa.
The target is the same in assay [23]. As to the kind of experiment: Percent inhibition was measured against 5,10-Methylene Tetrahydrofolate Cyclohydrolase (porcine liver) enzyme at 10E-6 M inhibitory concentration. The note with it: Sus scrofa; target entry is the homologue from another species.
The target is the same in assay [24]. As to the kind of experiment: Percent inhibition was measured against 5,10-Methylene Tetrahydrofolate Cyclohydrolase (porcine liver) enzyme at 10E-7 M inhibitory concentration. To be noted: Sus scrofa; target entry is the homologue from another species.
The test system of assay [25] is Columba livia. As to the kind of experiment: Percent inhibition was measured against 5-amino-4-imidazolecarboxamide ribotide transformylase(pigeon liver) enzyme at 10E-5 M inhibitory concentration.
For assay [26], the species on record is Sus scrofa. Description: Percent inhibition was measured against Serine transhydroxymethylase (porcine liver) enzyme at 10E-4 M inhibitory concentration.
For assay [27], the target named is T1, C-1-tetrahydrofolate synthase, cytoplasmic (Homo sapiens). As to the kind of experiment: Percent inhibition was measured against 5,10-Methylene Tetrahydrofolate Cyclohydrolase (porcine liver) enzyme at 10E-5 M inhibitory concentration. To be noted: Sus scrofa; target entry is the homologue from another species.
Assay [28] is filed under the species Sus scrofa. The description is as §1.

Values joined by “and” are separate entries in the source; they are usually repeats but may differ in a detail not shown here. Equal entries are not always repeated.

Chain of Dihydrofolate reductase (Bos taurus) (P00376 whole entry, looked up): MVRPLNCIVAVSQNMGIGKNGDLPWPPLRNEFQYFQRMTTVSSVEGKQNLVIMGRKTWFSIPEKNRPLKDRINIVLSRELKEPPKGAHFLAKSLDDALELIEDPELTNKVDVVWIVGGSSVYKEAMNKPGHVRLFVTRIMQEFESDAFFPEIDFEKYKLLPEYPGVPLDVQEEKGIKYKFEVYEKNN
Chain of Thymidylate synthase (Homo sapiens) (P04818 2-313 limits assumed): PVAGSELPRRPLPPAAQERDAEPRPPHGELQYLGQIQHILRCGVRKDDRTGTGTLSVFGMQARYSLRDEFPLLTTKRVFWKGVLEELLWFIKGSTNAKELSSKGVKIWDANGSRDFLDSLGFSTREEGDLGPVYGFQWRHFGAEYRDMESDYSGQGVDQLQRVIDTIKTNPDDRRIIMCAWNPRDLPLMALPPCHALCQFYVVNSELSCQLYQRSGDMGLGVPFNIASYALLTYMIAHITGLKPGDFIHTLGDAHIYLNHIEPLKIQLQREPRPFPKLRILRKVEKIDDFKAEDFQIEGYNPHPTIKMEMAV

For the compound `N=C1N(c2ccc(C(=O)NC(CCC(=O)O)C(=O)O)cc2)CC2CNc3nc(N)[nH]c(=O)c3N12` (stereo not drawn), the inhibition in assay [1] came out at 24%; in assay [2], 61%; in the assay filed under Sus scrofa [3], 0%; in assay [4] it was 24%; in the assay listed under Sus scrofa [5], 21%; in the assay listed under Sus scrofa [6] it was 4%. The inhibition is 30% in the assay listed under Sus scrofa [7]; 0% with Thymidylate synthase; 13% in the assay on Columba livia [8]; 0% with Columba livia [9]; 0% in [10]; 12% in assay [11]. This compound also yielded an inhibition in assay [12] of 43%.

In the case of `Nc1nc2c(c(=O)[nH]1)N1C=[N+](c3ccc(C(=O)NC(CCC(=O)O)C(=O)O)cc3)CC1CN2` (stereo not drawn), the inhibition is 9% in [13]; 0% in assay [14]; 40% in the assay listed under Sus scrofa [15]; 0% with Columba livia [16]; 0% in the assay listed under Sus scrofa [17]; 19% with Columba livia [18]. The inhibition is 10% in the assay listed under Sus scrofa [7], 0% in assay [19], 22% in the assay filed under Sus scrofa [20] and 15% in assay [10].

As for `Nc1nc2c(c(=O)[nH]1)N1C(=O)N(c3ccc(C(=O)NC(CCC(=O)O)C(=O)O)cc3)CC1CN2` (stereo not drawn), the inhibition in assay [21] came to 51%; in assay [22], 48%; in assay [23], 24%; in assay [24] it was 48%; in the assay listed under Sus scrofa [3], 41%; with Columba livia [25], 0%. Moreover, the inhibition was found to be 15% in the assay listed under Sus scrofa [5]; 2% in the assay filed under Sus scrofa [6]; 40% in the assay filed under Sus scrofa [26]; 25% with Thymidylate synthase; 0% in the assay with Columba livia [9]; 16% in assay [10]. In assay [11], this compound showed an inhibition of 16%.

As for `Nc1nc2c(c(=O)[nH]1)N1C(=S)N(c3ccc(C(=O)NC(CCC(=O)O)C(=O)O)cc3)CC1CN2` (stereo not drawn), the inhibition in assay [1] came out at 12%; in assay [22], 50%; in [27] it was 27%; in assay [23], 24%; in the assay listed under Sus scrofa [3], 55%; in the assay on Columba livia [25], 37%. Besides, the inhibition in the assay listed under Sus scrofa [28] was found to be 24%; in the assay filed under Sus scrofa [6] it was 5%; in the assay filed under Sus scrofa [7], 0%; in the assay on Thymidylate synthase, 8%; in the assay on Columba livia [9], 11%; in [10] it was 30%. The same compound yielded an inhibition in assay [11] of 13%.

In the case of `Nc1nc2c(c(=O)[nH]1)N1CCN(c3ccc(C(=O)NC(CCC(=O)O)C(=O)O)cc3)CC1CN2` (stereo not drawn), the inhibition in the assay listed under Sus scrofa [3] was 20%; in [4], 3% and 0%; in the assay filed under Sus scrofa [5] it was 0%; in the assay filed under Sus scrofa [6], 10%; in the assay filed under Sus scrofa [7], 10%; in the assay on Thymidylate synthase it was 16%. Moreover, the inhibition was found to be 33% with Columba livia [8], 0% in the assay with Columba livia [9] and 13% in assay [10].

The record behind these values is ChEMBL document CHEMBL1122152, “Synthesis of pseudo cofactor analogues as potential inhibitors of the folate enzymes” (J Med Chem, 1982).
